Here are results for 3 compounds from article PMC8143291, “Cytotoxicity and Microbicidal Activity of Commonly Used Organic Solvents: A Comparative Study and Application to a Standardized Extract from Vaccinium macrocarpon” (Toxics, 2021).

Common to all, as to test: Broth microdilution MIC/MBC
Background: Dilution methods test growth across graded concentrations, often in twofold steps.

In one assay the test system is E. faecalis ATCC 29212. Type of assay: cell-based, Enterococcus faecalis. The settings on record: 24 h exposure; v/v; n = 3. From the text:
(§1) The bacterial strains used for AST of the solvents included: Staphylococcus aureus (ATCC 29213), Staphylococcus aureus—MRSA (NBIMCC 8327—resistant to methicillin and oxacillin, National Bulgarian Collection for Industrial Microorganisms and Cell Cultures, Sofia, Bulgaria), Streptococcus pyogenes (SAIMC 10535, Collection of the Stephan Angeloff Institute of Microbiology, Sofia, Bulgaria), Enterococcus faecalis (ATCC 29212), Escherichia coli (ATCC 35218), Pseudomonas aeruginosa (ATCC 27853), and Yersinia enterocolitica (IP864 O:3, Collection of Institut Pasteur, Paris, France). The selected strains are the most often investigated ones in the AST research studies in correspondence with the standard ISO 20776-1 Part 1: Reference method for testing the in vitro activity of antimicrobial agents against rapidly growing aerobic bacteria involved in infectious diseases. The antimycotic activity was tested on Candida albicans (CBS 562, Utrecht, The Netherlands). The strains S. aureus, MRSA, E. coli and E. faecalis were grown on Mueller–Hinton broth/agar (MHB/MHA); S. pyogenes, P. aeruginosa, Y. enterocolitica and C. albicans were grown on brain heart infusion (BHI) broth/agar; E. coli was also grown on Luria–Bertani broth/agar (LBB/LBA).
(§2) The minimum inhibitory concentration (MIC) for each solvent was estimated by the broth microdilution method (BMD) in 96-well microplates, following ISO 20776/1-2006 [3] and CLSI protocols. Briefly, a standardized bacterial inoculum was prepared from each bacterial species by suspending 3–4 colonies from a pure culture into 4 mL sterile saline. The turbidity of the inocula was adjusted to McFarland 0.5 (1.0 × 10^8 CFU/mL, λ = 600 nm), and 50 µL were resuspended in 10 mL of the appropriate culture medium for each strain. The bacterial inocula were added to microtiter trays containing equivalent volumes of medium loaded with the relevant solvent in concentrations varying from 0.025 to 25% volume fraction. The final volume of each sample was 100 µL/well. The plates were incubated at 37 °C for 24 h. The pure culture medium served as a negative control. Every MIC was evaluated visually as the lowest concentration without visible growth. […] MBC was defined as the lowest compound’s concentration reducing the colony growth of the initial bacterial inoculum by ≥ 99.9%.

The test system of a further assay is P. aeruginosa ATCC 27853. In kind it is cell-based, Pseudomonas aeruginosa. The conditions noted are these: 24 h exposure; v/v; n = 3.
Description: as §1, §2

A further assay relates to S. Aureus ATCC 29213. Type of assay: cell-based, Staphylococcus aureus. The settings on record: 24 h exposure; v/v; n = 3.
Description: as §1, §2

Assay [1] deals with S. Aureus MRSA NBIMCC 8327. Type of assay: cell-based, Staphylococcus aureus. The settings on record: 24 h exposure; v/v; n = 3.
Description: as §1, §2

The subject of the next assay is E. coli ATCC 35218. In kind it is cell-based, Escherichia coli. The settings on record: 24 h exposure, v/v, n = 3.
Description: as §1, §2

The subject of the next assay is S. pyogenes SAIMC 10535. Type of assay: cell-based, Streptococcus pyogenes. The conditions noted are these: 24 h exposure; v/v; n = 3.
Description: as §1, §2

In assay [2] the test system is Y. enterocolitica IP 864 O: 3. In kind it is cell-based, Yersinia enterocolitica. The conditions noted are these: 24 h exposure; v/v; n = 3.
Description: as §1, §2

As to “polyethylene glycol of average molecular weight 400 [PEG-400]”, the MBC against E. faecalis ATCC 29212 was greater than 25%; against P. aeruginosa ATCC 27853, greater than 25%; in the assay with S. Aureus ATCC 29213, greater than 25%; in assay [1], 25%; in the assay on E. coli ATCC 35218 (in LBB), greater than 25%; with E. coli ATCC 35218 (in MHB) it was greater than 25%. Also, the MBC in the assay on S. pyogenes SAIMC 10535 was greater than 25%; in assay [2], 12.5%. The MIC in the assay on E. faecalis ATCC 29212 is on record as 25%; in the assay with P. aeruginosa ATCC 27853, 25%; in the assay on S. Aureus ATCC 29213 it was greater than 25%; in assay [1] it was 25%; against E. coli ATCC 35218 (in LBB) it was 25%; against E. coli ATCC 35218 (in MHB), greater than 25%. The MIC came out at 25% against S. pyogenes SAIMC 10535 and 12.5% in assay [2].

Consider `C[S+](C)[O-]` [DMSO, dimethyl sulfoxide], for which the MBC (in the assay on E. faecalis ATCC 29212; against P. aeruginosa ATCC 27853; with S. Aureus ATCC 29213; in assay [1]; against E. coli ATCC 35218 (in LBB); with E. coli ATCC 35218 (in MHB)) was greater than 25% throughout. Besides, the MBC is recorded as greater than 25% in the assay on S. pyogenes SAIMC 10535 and 6.25% in assay [2]. Moreover, the MIC was determined as 12.5% with E. faecalis ATCC 29212; 6.25% against P. aeruginosa ATCC 27853; 25% with S. Aureus ATCC 29213; 25% in assay [1]; 12.5% in the assay on E. coli ATCC 35218 (in LBB); 12.5% in the assay on E. coli ATCC 35218 (in MHB). In addition, the results for the MIC (in the assay on S. pyogenes SAIMC 10535; in assay [2]) were 12.5% and 3.125%, respectively.

With `CCO` [EtOH, ethanol], the MBC (in the assay with E. faecalis ATCC 29212; against P. aeruginosa ATCC 27853; against S. Aureus ATCC 29213; in assay [1]; with E. coli ATCC 35218 (in LBB); with E. coli ATCC 35218 (in MHB)) was greater than 25% in each case. The MBC (in the assay on S. pyogenes SAIMC 10535; in assay [2]) was greater than 25% in each case. For the same compound, the MIC (in the assay on E. faecalis ATCC 29212; against P. aeruginosa ATCC 27853; against S. Aureus ATCC 29213; in assay [1]; in the assay on E. coli ATCC 35218 (in LBB); against E. coli ATCC 35218 (in MHB)) was greater than 25% in each case. Also, the MIC (in the assay with S. pyogenes SAIMC 10535; in assay [2]) was greater than 25% throughout.
